Results taken from PubChem BioAssay (NCI).
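Five compound concentrations were applied to cells in 96-well plates for 48 hours; endpoints were derived by simple linear interpolation of the resulting dose-response curve. TGI is the concentration that stops growth completely.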

How the values were obtained:
Experiment in all cases: NCI anticancer screen, dose series, 48 h
HS 578T breast = test system: HS 578T breast
SK-OV-3 ovarian = test system: SK-OV-3 ovarian
MDA-N = test system: MDA-N
RPMI-8226 leukemia = test system: RPMI-8226 leukemia
HCC-2998 colon = test system: HCC-2998 colon
SN12C renal = test system: SN12C renal
SK-MEL-2 melanoma = test system: SK-MEL-2 melanoma
U251 CNS = test system: U251 CNS
EKVX NSCLC = test system: EKVX NSCLC
SF-295 CNS = test system: SF-295 CNS
HOP-92 NSCLC = test system: HOP-92 NSCLC
NCI-H522 lung = test system: NCI-H522 lung
UO-31 renal = test system: UO-31 renal
HCT-15 colon = test system: HCT-15 colon
MDA-MB-231 breast = test system: MDA-MB-231 breast
M14 melanoma = test system: M14 melanoma
OVCAR-4 ovarian = test system: OVCAR-4 ovarian
SK-MEL-28 melanoma = test system: SK-MEL-28 melanoma
KM12 colon = test system: KM12 colon
BT-549 breast = test system: BT-549 breast
ACHN renal = test system: ACHN renal
NCI/ADR-RES ovarian = test system: NCI/ADR-RES ovarian
K-562 leukemia = test system: K-562 leukemia
COLO 205 colon = test system: COLO 205 colon
PC-3 prostate = test system: PC-3 prostate
OVCAR-3 ovarian = test system: OVCAR-3 ovarian
MCF7 breast = test system: MCF7 breast
SF-539 CNS = test system: SF-539 CNS
MALME-3M melanoma = test system: MALME-3M melanoma
SK-MEL-5 melanoma = test system: SK-MEL-5 melanoma
OVCAR-5 ovarian = test system: OVCAR-5 ovarian
786-0 renal = test system: 786-0 renal
OVCAR-8 ovarian = test system: OVCAR-8 ovarian
UACC-257 melanoma = test system: UACC-257 melanoma
MDA-MB-435 = test system: MDA-MB-435
SNB-19 CNS = test system: SNB-19 CNS
T-47D breast = test system: T-47D breast
A549 NSCLC = test system: A549 NSCLC
HCT-116 colon = test system: HCT-116 colon
IGROV1 ovarian = test system: IGROV1 ovarian
NCI-H226 lung = test system: NCI-H226 lung
DU-145 prostate = test system: DU-145 prostate
SW-620 colon = test system: SW-620 colon
A498 renal = test system: A498 renal
SF-268 CNS = test system: SF-268 CNS
MOLT-4 leukemia = test system: MOLT-4 leukemia
RXF 393 renal = test system: RXF 393 renal
CCRF-CEM leukemia = test system: CCRF-CEM leukemia
HOP-62 NSCLC = test system: HOP-62 NSCLC
HT29 colon = test system: HT29 colon
NCI-H460 lung = test system: NCI-H460 lung
NCI-H23 lung = test system: NCI-H23 lung
LOX IMVI melanoma = test system: LOX IMVI melanoma
CAKI-1 renal = test system: CAKI-1 renal
SNB-75 CNS = test system: SNB-75 CNS
TK-10 renal = test system: TK-10 renal
UACC-62 melanoma = test system: UACC-62 melanoma
HL-60(TB) leukemia = test system: HL-60(TB) leukemia
SR leukemia = test system: SR leukemia

Q: Which results are given for `CC(C)C[C@H](NC(=O)[C@H](Cc1ccccc1)NC(=O)CCc1ccccc1)B(O)O`?
A: TGI (HS 578T breast): < 10 nM; TGI (SK-OV-3 ovarian): 72.7 nM; TGI (MDA-N): < 10 nM; TGI (RPMI-8226 leukemia): > 100000 nM; TGI (HCC-2998 colon): < 10 nM; TGI (SN12C renal): < 10 nM; TGI (SK-MEL-2 melanoma): < 10 nM; TGI (U251 CNS): < 11.2 nM; TGI (EKVX NSCLC): < 21.6 nM; TGI (SF-295 CNS): < 10 nM; TGI (HOP-92 NSCLC): < 10 nM; TGI (NCI-H522 lung): < 10 nM; TGI (UO-31 renal): < 10 nM; TGI (HCT-15 colon): < 10 nM; TGI (MDA-MB-231 breast): < 10 nM; TGI (M14 melanoma): < 10 nM; TGI (OVCAR-4 ovarian): < 10 nM; TGI (SK-MEL-28 melanoma): < 10 nM; TGI (KM12 colon): 10.1 nM; TGI (BT-549 breast): < 10 nM; TGI (ACHN renal): < 10 nM; TGI (NCI/ADR-RES ovarian): 1820 nM; TGI (K-562 leukemia): > 100000 nM; TGI (COLO 205 colon): < 10 nM; TGI (PC-3 prostate): < 10 nM; TGI (OVCAR-3 ovarian): < 10 nM; TGI (MCF7 breast): 225 nM; TGI (SF-539 CNS): < 10 nM; TGI (MALME-3M melanoma): < 10 nM; TGI (SK-MEL-5 melanoma): < 10 nM; TGI (OVCAR-5 ovarian): < 10 nM; TGI (786-0 renal): < 10 nM; TGI (OVCAR-8 ovarian): < 10 nM; TGI (UACC-257 melanoma): < 10 nM; TGI (MDA-MB-435): < 10 nM; TGI (SNB-19 CNS): 1080 nM; TGI (T-47D breast): < 10 nM; TGI (A549 NSCLC): 91.9 nM; TGI (HCT-116 colon): < 10 nM; TGI (IGROV1 ovarian): < 10 nM; TGI (NCI-H226 lung): < 10 nM; TGI (DU-145 prostate): < 10 nM; TGI (SW-620 colon): < 10.4 nM; TGI (A498 renal): < 10 nM; TGI (SF-268 CNS): < 10 nM; TGI (MOLT-4 leukemia): 665 nM; TGI (RXF 393 renal): < 10 nM; TGI (CCRF-CEM leukemia): > 100000 nM; TGI (HOP-62 NSCLC): < 10 nM; TGI (HT29 colon): < 10 nM; TGI (NCI-H460 lung): < 10.4 nM; TGI (NCI-H23 lung): < 10 nM; TGI (LOX IMVI melanoma): < 10 nM; TGI (CAKI-1 renal): 55.4 nM; TGI (SNB-75 CNS): < 10 nM; TGI (TK-10 renal): < 10 nM

Q: With `CS(=O)(=O)OCC1OC(n2ccc(NC(=O)c3ccccc3)nc2=O)CC1OS(C)(=O)=O` (stereo not given) as the molecule, how does the TGI (HS 578T breast) read?
A: > 100000 nM

Q: What about the TGI (SK-OV-3 ovarian) of the same molecule?
A: > 100000 nM

Q: And the TGI (MDA-N)?
A: > 100000 nM

Q: What about the TGI (RPMI-8226 leukemia) of the same molecule?
A: > 100000 nM

Q: And the TGI (SN12C renal)?
A: > 100000 nM

Q: And the TGI (SK-MEL-2 melanoma)?
A: > 100000 nM

Q: What about the TGI (U251 CNS) of the same molecule?
A: > 100000 nM

Q: And the TGI (EKVX NSCLC)?
A: > 100000 nM

Q: And the TGI (SF-295 CNS)?
A: > 100000 nM

Q: What about the TGI (NCI-H522 lung) of the same molecule?
A: > 100000 nM

Q: And the TGI (HCT-15 colon)?
A: > 100000 nM

Q: What about the TGI (MDA-MB-231 breast) of the same molecule?
A: > 100000 nM

Q: What about the TGI (M14 melanoma) of the same molecule?
A: > 100000 nM

Q: And the TGI (OVCAR-4 ovarian)?
A: > 100000 nM

Q: And the TGI (SK-MEL-28 melanoma)?
A: > 100000 nM

Q: And the TGI (KM12 colon)?
A: > 100000 nM

Q: What about the TGI (BT-549 breast) of the same molecule?
A: > 100000 nM

Q: What about the TGI (ACHN renal) of the same molecule?
A: > 100000 nM

Q: And the TGI (NCI/ADR-RES ovarian)?
A: > 100000 nM

Q: What about the TGI (K-562 leukemia) of the same molecule?
A: > 100000 nM

Q: And the TGI (COLO 205 colon)?
A: > 100000 nM

Q: And the TGI (PC-3 prostate)?
A: > 100000 nM

Q: And the TGI (OVCAR-3 ovarian)?
A: > 100000 nM

Q: And the TGI (UACC-62 melanoma)?
A: > 100000 nM

Q: What about the TGI (MCF7 breast) of the same molecule?
A: > 100000 nM

Q: What about the TGI (SF-539 CNS) of the same molecule?
A: > 100000 nM

Q: And the TGI (HL-60(TB) leukemia)?
A: > 100000 nM

Q: And the TGI (SK-MEL-5 melanoma)?
A: > 100000 nM

Q: What about the TGI (OVCAR-5 ovarian) of the same molecule?
A: > 100000 nM

Q: And the TGI (786-0 renal)?
A: > 100000 nM

Q: What about the TGI (OVCAR-8 ovarian) of the same molecule?
A: > 100000 nM

Q: And the TGI (UACC-257 melanoma)?
A: > 100000 nM

Q: What about the TGI (MDA-MB-435) of the same molecule?
A: > 100000 nM

Q: And the TGI (SNB-19 CNS)?
A: > 100000 nM

Q: What about the TGI (T-47D breast) of the same molecule?
A: > 100000 nM

Q: And the TGI (A549 NSCLC)?
A: > 100000 nM

Q: What about the TGI (HCT-116 colon) of the same molecule?
A: > 100000 nM

Q: And the TGI (IGROV1 ovarian)?
A: > 100000 nM

Q: What about the TGI (NCI-H226 lung) of the same molecule?
A: > 100000 nM

Q: What about the TGI (DU-145 prostate) of the same molecule?
A: > 100000 nM

Q: What about the TGI (SW-620 colon) of the same molecule?
A: > 100000 nM

Q: And the TGI (A498 renal)?
A: > 100000 nM

Q: What about the TGI (SF-268 CNS) of the same molecule?
A: > 100000 nM

Q: What about the TGI (MOLT-4 leukemia) of the same molecule?
A: > 100000 nM

Q: And the TGI (CCRF-CEM leukemia)?
A: > 100000 nM

Q: What about the TGI (HOP-62 NSCLC) of the same molecule?
A: > 100000 nM

Q: And the TGI (HT29 colon)?
A: > 100000 nM

Q: What about the TGI (NCI-H460 lung) of the same molecule?
A: > 100000 nM

Q: What about the TGI (NCI-H23 lung) of the same molecule?
A: > 100000 nM

Q: And the TGI (LOX IMVI melanoma)?
A: > 100000 nM

Q: And the TGI (SR leukemia)?
A: > 100000 nM

Q: And the TGI (CAKI-1 renal)?
A: > 100000 nM

Q: And the TGI (SNB-75 CNS)?
A: > 100000 nM

Q: What about the TGI (TK-10 renal) of the same molecule?
A: > 100000 nM
